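The compound was tested at five concentrations on cells cultured in 96-well plates, with a 48-hour exposure period. GI50 is the concentration that inhibits growth by half.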 Active and inactive are the calls of the source. No stated cut-off is given here; in the data, active = GI50 up to about 1.1 µM and inactive = higher. A value given as a limit tells only on which side of the number the result lay.

Consider 10 compounds from ChEMBL document CHEMBL1201862, “PubChem BioAssay data set” (2004).

Common to all, as to test: DTP human tumour cell line panel, 48 h
In assay [1] the test system is MDA-MB-231.
Assay [2] concerns NCI/ADR-RES.
The subject of assay [3] is MDA-MB-435.
In assay [4] the test system is HOP-62.
Assay [5] has as its system HCT-116.
The test system of assay [6] is SF-295.
For assay [7], the system named is HCT-15.
Assay [8] deals with SW-620.
In assay [9] the test system is NCI-H226.
The test system of assay [10] is DU-145.
In assay [11] the test system is CCRF-CEM.
In assay [12] the test system is SNB-19.
Assay [13] deals with SNB-75.
Assay [14] relates to NCI-H23.
For assay [15], the system named is MOLT-4.
Assay [16] relates to SR.
In assay [17] the test system is A549.
For assay [18], the system named is ACHN.
The test system of assay [19] is NCI-H522.
The subject of assay [20] is PC-3.

In general, GI50 refers to the concentration giving 50% growth inhibition. Turning to `NC1=NC(c2ccc(Cl)cc2)N(c2ccc(S(N)(=O)=O)cc2)C(N)=N1` (stereo not given), the GI50 in [1], in [2], in assay [3], in assay [4], in assay [5] and in [6] was > 100 µM (inactive) throughout. Besides, the GI50 is above 100 µM in assay [7]; > 100 µM (inactive) in assay [8]; > 100 µM (inactive) in assay [9]; > 100 µM (inactive) in [10]; > 100 µM (inactive) in assay [11]; > 100 µM (inactive) in assay [12]. For the same compound, the GI50 in assay [13], in [14], in assay [15], in assay [16], in assay [17] and in assay [18] was > 100 µM (inactive) each time. Moreover, the GI50 in [19] and in assay [20] was > 100 µM (inactive) in each case.
As for `C(CCc1nnc2c(n1)CCCC2)Cc1nnc2c(n1)CCCC2`, the GI50 in assay [1] is > 100 µM (inactive); in assay [2], > 100 µM (inactive); in assay [3], 88.7 µM (inactive); in assay [4], > 100 µM (inactive); in [5], > 100 µM (inactive); in assay [6] it was > 100 µM (inactive). Moreover, the GI50 is above 100 µM in assay [7]; > 100 µM (inactive) in assay [8]; > 100 µM (inactive) in [9]; > 100 µM (inactive) in assay [10]; > 100 µM (inactive) in assay [11]; > 100 µM (inactive) in assay [12]. For the same compound, the GI50 in assay [13] was > 100 µM (inactive); in [14] it was > 100 µM (inactive); in assay [15], > 100 µM (inactive); in [16], 88.7 µM (inactive); in [17], > 100 µM (inactive); in assay [18], > 100 µM (inactive). The GI50 was > 100 µM (inactive) in assay [19] and 85.7 µM (inactive) in [20].
Take `C(=N\c1cnc2ccccc2c1)/c1ccc2ccccc2n1`: the GI50 in assay [1] was > 100 µM (inactive); in assay [2], > 100 µM (inactive); in assay [3], > 100 µM (inactive); in assay [4], > 100 µM (inactive); in [5], 35.6 µM (inactive); in [6], > 100 µM (inactive). Further, the GI50 in assay [7] is 55.6 µM; in [8], 64.1 µM (inactive); in [9], > 100 µM (inactive); in [10], > 100 µM (inactive); in [11], 23.8 µM (inactive); in assay [12], > 100 µM (inactive). Besides, the GI50 in assay [13] was > 100 µM (inactive); in assay [14], > 100 µM (inactive); in assay [15], 50 µM (inactive); in assay [16] it was 24 µM (inactive); in assay [17], > 100 µM (inactive); in [18], > 100 µM (inactive). For the same compound, the GI50 in [19] and in assay [20] was > 100 µM (inactive) throughout.
On to `CC1(C)OC(C(=O)Nc2cc3c4ccccc4ccc3c3ccccc23)C(C(=O)N2CCCCC2)O1` (stereo not given), for which the GI50 in assay [1] was > 38.9 µM (inactive); in assay [2], 2.08 µM (inactive); in assay [3], 2.7 µM (inactive); in assay [4], 17.6 µM (inactive); in assay [5] it was 0.507 µM (active); in assay [6], 1.32 µM (inactive). The GI50 was 0.419 µM in [7]; 0.813 µM (active) in [8]; 60.4 µM (inactive) in [9]; 5.97 µM (inactive) in [10]; 0.537 µM (active) in assay [11]; 4.2 µM (inactive) in assay [12]. Further, the GI50 in [13] was 2.74 µM (inactive); in assay [14], > 21.4 µM (inactive); in assay [15], 0.574 µM (active); in assay [16] it was 0.0964 µM (active); in assay [17] it was 1.04 µM (active); in [18], 0.897 µM (active). The values for the GI50 in assay [19] and in assay [20] were 0.863 µM (active) and 3.33 µM (inactive), respectively.
For `COC1=CC(=O)c2nc3ccccc3c3ccnc1c23`, the GI50 is 7.8 µM (inactive) in assay [1]; 3.71 µM (inactive) in assay [2]; 0.187 µM (active) in assay [3]; 5.74 µM (inactive) in assay [4]; 1.2 µM (inactive) in [5]; 4.48 µM (inactive) in [6]. The GI50 was 0.721 µM in assay [7]; 1.03 µM (active) in assay [8]; 10.8 µM (inactive) in assay [9]; 3.25 µM (inactive) in assay [10]; 4.4 µM (inactive) in assay [11]; 12.4 µM (inactive) in assay [12]. Further, the GI50 in assay [13] is 9.89 µM (inactive); in assay [14] it was 1.35 µM (inactive); in assay [15] it was 4.01 µM (inactive); in assay [16] it was 1.56 µM (inactive); in assay [17] it was 1.12 µM (inactive); in assay [18], 3.42 µM (inactive). In addition, the GI50 in assay [19] was 2.22 µM (inactive); in assay [20] it was 1.81 µM (inactive).
For `CC(C)(Cl)C(Cl)CC/C(CBr)=C(\Cl)CBr` (stereo not given), the GI50 in assay [1] was 2 µM (inactive); in [2], 2.77 µM (inactive); in assay [3], 2.37 µM (inactive); in [4], 2.24 µM (inactive); in [5], 2.23 µM (inactive); in assay [6] it was 6.49 µM (inactive). Further, the GI50 in assay [7] is 1.75 µM; in assay [8], 1.6 µM (inactive); in assay [9] it was 1.79 µM (inactive); in assay [10], 7.5 µM (inactive); in assay [11], 0.15 µM (active); in [12], 11.1 µM (inactive). In addition, the GI50 was 2.23 µM (inactive) in assay [13]; 1.85 µM (inactive) in assay [14]; 0.473 µM (active) in assay [15]; 0.443 µM (active) in assay [16]; 10.6 µM (inactive) in assay [17]; 3.66 µM (inactive) in assay [18]. The GI50 is 0.55 µM (active) in [19] and 3.15 µM (inactive) in assay [20].
Turning to `C=C(CCOC)CCC1CCCCC(=C)[C@H]1OC(C)=O` (stereo not given in full), the GI50 is > 100 µM (inactive) in assay [1]; 78.3 µM (inactive) in [2]; > 100 µM (inactive) in assay [3]; > 100 µM (inactive) in assay [4]; > 100 µM (inactive) in assay [5]; > 100 µM (inactive) in assay [6]. The GI50 in assay [7] was above 100 µM; in assay [8], > 100 µM (inactive); in assay [9], 97.3 µM (inactive); in assay [10] it was > 100 µM (inactive); in assay [11] it was > 100 µM (inactive); in [12], > 100 µM (inactive). The GI50 in [13] is > 100 µM (inactive); in assay [14], 93.8 µM (inactive); in assay [15], 59.7 µM (inactive); in assay [16] it was 52.5 µM (inactive); in assay [17], > 100 µM (inactive); in assay [18], > 100 µM (inactive). The GI50 in [19] was 41.8 µM (inactive); in assay [20], > 100 µM (inactive).
With `Cc1cc(-c2nc3ccccc3s2)ccc1NC(=O)[C@H](C)N`, the GI50 in [1] was 14.3 µM (inactive); in [2], 18.3 µM (inactive); in [3], 7.18 µM (inactive); in assay [4], 13.8 µM (inactive); in assay [5], 10.9 µM (inactive); in assay [6] it was 15.3 µM (inactive). The GI50 in assay [7] is 14.1 µM; in [8] it was 14.8 µM (inactive); in [9], 0.942 µM (active); in assay [10], 15.3 µM (inactive); in assay [11] it was 7.89 µM (inactive); in [12] it was 15.1 µM (inactive). Moreover, the GI50 in assay [13] is 12.5 µM (inactive); in [14], 16.5 µM (inactive); in [15], 18.2 µM (inactive); in assay [16], 5.2 µM (inactive); in assay [17], 13.7 µM (inactive); in assay [18], 13.6 µM (inactive). The GI50 was 24.2 µM (inactive) in assay [19] and 13.1 µM (inactive) in [20].
For `CC(C)Cc1ccc(C(C)/C=C2\CCC(CN3CCOCC3)C2=O)cc1` (stereo not given), the GI50 is 1.73 µM (inactive) in [1]; 3.93 µM (inactive) in assay [2]; 6.92 µM (inactive) in [3]; 11.7 µM (inactive) in assay [4]; 5.26 µM (inactive) in assay [5]; 15.3 µM (inactive) in assay [6]. In addition, the GI50 in [7] is 2.94 µM; in [8], 3 µM (inactive); in [9] it was 20.3 µM (inactive); in assay [10], 13.7 µM (inactive); in assay [11] it was 1.3 µM (inactive); in assay [12], 8.51 µM (inactive). Moreover, the GI50 is 8.34 µM (inactive) in assay [13]; 12.9 µM (inactive) in [14]; 1.64 µM (inactive) in assay [15]; 2.08 µM (inactive) in assay [16]; 18.6 µM (inactive) in assay [17]; 16 µM (inactive) in [18]. The GI50 in assay [19] is 5.62 µM (inactive); in assay [20], 12.3 µM (inactive).
On to `N#CC12CC(C=O)=C(N)C1(C#N)CC(C=O)=C2N` (stereo not given), for which the GI50 in assay [1] was > 100 µM (inactive); in assay [2], > 100 µM (inactive); in assay [3] it was 36.1 µM (inactive); in assay [4], 65.9 µM (inactive); in [5], 47.3 µM (inactive); in assay [6], > 100 µM (inactive). For the same compound, the GI50 in assay [7] was 8.34 µM; in assay [8], 49.7 µM (inactive); in [9] it was > 100 µM (inactive); in assay [10], 46 µM (inactive); in assay [11], 36.7 µM (inactive); in assay [12], 52.8 µM (inactive). Moreover, the GI50 in assay [13] was 44.4 µM (inactive); in [14] it was 28.3 µM (inactive); in assay [15], 50.8 µM (inactive); in assay [16], 37.7 µM (inactive); in assay [17] it was > 100 µM (inactive); in assay [18], > 100 µM (inactive). Moreover, the GI50 in assay [19] was > 100 µM (inactive); in [20], 72.3 µM (inactive).
